According to article PMC10746543, “Design principles for cyclin K molecular glue degraders” (Nature Chemical Biology, 2023):
Where “and” joins values, the source holds several entries; their conditions need not be identical. Equal entries are not always repeated. Where two headings read alike, the source gives them in different places.

Columns and labels:
[1] = system: cyclin K–eGFP degradation reporter; experiment: Cyclin K reporter stability analysis (dual-color cyclin K–eGFP reporter); type: cell-based, human; conditions: Supplementary Table 2; HEK293T cycK-eGFP reporter, 5 h; read-out: Cellular assays DC50
Outline: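 First, reporter-bearing HEK293T–Cas9 cells are plated at 1 × 10^6 ml^−1. Next, drug or vehicle is added for 5 h. Finally, geometric-mean eGFP and mCherry signals of round, mCherry-positive cells are measured cytometrically, and their ratio is referenced to the DMSO average.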

CDK12–cyclin K = CDK12–cyclin K (Homo sapiens, UniProt Q9NYV4); experiment: Lanthascreen kinase binding assay, CDK12; conditions: for Lanthascreen raw signal, sheet CDK12: series r1, duplicates
CDK12–cyclin K, sequence (Q9NYV4 713-1052): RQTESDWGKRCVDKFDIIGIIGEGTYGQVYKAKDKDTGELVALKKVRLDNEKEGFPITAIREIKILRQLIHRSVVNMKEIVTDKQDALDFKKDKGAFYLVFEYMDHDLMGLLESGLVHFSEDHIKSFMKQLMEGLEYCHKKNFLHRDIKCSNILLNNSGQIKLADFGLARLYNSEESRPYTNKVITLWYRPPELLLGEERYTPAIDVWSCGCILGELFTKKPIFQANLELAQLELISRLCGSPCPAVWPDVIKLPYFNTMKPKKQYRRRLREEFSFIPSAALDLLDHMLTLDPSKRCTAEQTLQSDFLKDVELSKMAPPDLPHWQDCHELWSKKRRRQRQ
CDK12–cyclin K, sequence (O75909 1-267 partner limits assumed): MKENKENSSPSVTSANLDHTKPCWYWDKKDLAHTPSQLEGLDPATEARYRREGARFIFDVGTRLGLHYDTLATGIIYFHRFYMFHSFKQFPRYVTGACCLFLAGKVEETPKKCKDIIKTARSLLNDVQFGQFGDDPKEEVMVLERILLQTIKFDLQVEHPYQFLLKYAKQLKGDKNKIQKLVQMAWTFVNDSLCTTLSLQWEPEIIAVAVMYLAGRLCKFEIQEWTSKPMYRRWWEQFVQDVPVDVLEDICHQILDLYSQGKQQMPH
Experimental: (§1) Lanthascreen experiments were performed using commercially available reagents (Thermo Fisher) and according to the manufacturer’s instructions.

HEK293T cells = experiment: Drug sensitivity assay (CellTiter-Glo viability) with or without MLN4924 pretreatment; type: cell-based, human; conditions: Supplementary Table 2
Outline: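 First, cells (HEK293T–Cas9, 0.15 × 10^6 ml^−1) are exposed to DMSO or 100 nM MLN4924. Next, drugs follow at 2 h. Finally, CellTiter-Glo is read at day 3 and normalised to DMSO.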

CDK2–cyclin A = target: T1, CDK2–cyclin A (Homo sapiens, UniProt P24941); experiment: Lanthascreen kinase binding assay, CDK2; conditions: for Lanthascreen signal, sheet CDK2: raw replicates, experiment r1-r11
T1 construct: purchased Thermo Fisher
Experimental: as §1

CDK9–cyclin T = target: T2, CDK9–cyclin T (Homo sapiens, UniProt P50750); experiment: Lanthascreen kinase binding assay, CDK9; conditions: for Lanthascreen TR-FRET signal (raw ratio), sheet CDK9: first titration set (r1), duplicates
T2 construct: purchased Thermo Fisher
T2 sequence (P50750 whole entry): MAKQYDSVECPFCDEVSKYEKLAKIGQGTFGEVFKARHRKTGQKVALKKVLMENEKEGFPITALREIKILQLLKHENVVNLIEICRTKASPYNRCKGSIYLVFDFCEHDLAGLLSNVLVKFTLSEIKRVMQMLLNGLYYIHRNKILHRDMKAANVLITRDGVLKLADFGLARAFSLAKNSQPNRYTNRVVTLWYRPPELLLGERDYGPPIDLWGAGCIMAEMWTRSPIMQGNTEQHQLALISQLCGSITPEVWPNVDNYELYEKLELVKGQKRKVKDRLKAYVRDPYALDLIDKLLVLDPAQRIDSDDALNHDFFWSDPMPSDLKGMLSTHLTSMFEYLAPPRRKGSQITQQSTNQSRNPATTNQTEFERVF
T2 sequence (O60563 whole entry partner): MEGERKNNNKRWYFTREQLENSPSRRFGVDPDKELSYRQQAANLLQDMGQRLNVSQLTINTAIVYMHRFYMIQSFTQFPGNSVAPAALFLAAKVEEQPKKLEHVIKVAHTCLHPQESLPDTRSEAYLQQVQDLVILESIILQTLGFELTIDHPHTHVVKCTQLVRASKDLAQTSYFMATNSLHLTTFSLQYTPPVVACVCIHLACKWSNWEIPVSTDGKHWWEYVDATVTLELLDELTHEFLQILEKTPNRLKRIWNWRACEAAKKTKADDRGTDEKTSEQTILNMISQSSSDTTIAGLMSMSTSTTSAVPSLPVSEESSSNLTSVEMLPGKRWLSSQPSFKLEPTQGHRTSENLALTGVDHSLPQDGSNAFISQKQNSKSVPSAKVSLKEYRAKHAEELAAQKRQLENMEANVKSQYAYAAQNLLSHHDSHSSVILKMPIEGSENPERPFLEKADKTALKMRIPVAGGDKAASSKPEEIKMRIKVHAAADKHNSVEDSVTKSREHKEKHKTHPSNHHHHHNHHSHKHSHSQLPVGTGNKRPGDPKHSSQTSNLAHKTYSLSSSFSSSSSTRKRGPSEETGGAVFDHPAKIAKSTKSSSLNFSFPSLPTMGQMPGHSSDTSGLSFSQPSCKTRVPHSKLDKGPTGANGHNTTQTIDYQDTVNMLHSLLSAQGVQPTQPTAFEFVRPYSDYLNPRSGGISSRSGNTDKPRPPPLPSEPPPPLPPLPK
Experimental: as §1

CDK12–cyclin K and DDB1 = target: T3, CDK12–cyclin K and DDB1 (Homo sapiens, UniProt Q16531+Q9NYV4, K965R); experiment: TR-FRET ternary complex formation assay (compound titration); type: binding
T3 construct: His6–CDK12 (a.a. 713–1,052); full-length or beta-propeller B domain deletion (ΔBPB: a.a. 396–705 deleted) constructs of His6–DDB1ΔBPB, StrepII–Avi–DDB1, or His6–Spy–DDB1; made in house; host or cells: Trichoplusia ni High Five insect cells (baculovirus)
T3 sequence (Q9NYV4 713-1052 K965R): as the sequence (Q9NYV4 713-1052) above, with K253R counted along it
T3 sequence (O75909 1-267 partner): as the sequence (O75909 1-267 partner limits assumed) above
T3 sequence (Q16531 whole entry): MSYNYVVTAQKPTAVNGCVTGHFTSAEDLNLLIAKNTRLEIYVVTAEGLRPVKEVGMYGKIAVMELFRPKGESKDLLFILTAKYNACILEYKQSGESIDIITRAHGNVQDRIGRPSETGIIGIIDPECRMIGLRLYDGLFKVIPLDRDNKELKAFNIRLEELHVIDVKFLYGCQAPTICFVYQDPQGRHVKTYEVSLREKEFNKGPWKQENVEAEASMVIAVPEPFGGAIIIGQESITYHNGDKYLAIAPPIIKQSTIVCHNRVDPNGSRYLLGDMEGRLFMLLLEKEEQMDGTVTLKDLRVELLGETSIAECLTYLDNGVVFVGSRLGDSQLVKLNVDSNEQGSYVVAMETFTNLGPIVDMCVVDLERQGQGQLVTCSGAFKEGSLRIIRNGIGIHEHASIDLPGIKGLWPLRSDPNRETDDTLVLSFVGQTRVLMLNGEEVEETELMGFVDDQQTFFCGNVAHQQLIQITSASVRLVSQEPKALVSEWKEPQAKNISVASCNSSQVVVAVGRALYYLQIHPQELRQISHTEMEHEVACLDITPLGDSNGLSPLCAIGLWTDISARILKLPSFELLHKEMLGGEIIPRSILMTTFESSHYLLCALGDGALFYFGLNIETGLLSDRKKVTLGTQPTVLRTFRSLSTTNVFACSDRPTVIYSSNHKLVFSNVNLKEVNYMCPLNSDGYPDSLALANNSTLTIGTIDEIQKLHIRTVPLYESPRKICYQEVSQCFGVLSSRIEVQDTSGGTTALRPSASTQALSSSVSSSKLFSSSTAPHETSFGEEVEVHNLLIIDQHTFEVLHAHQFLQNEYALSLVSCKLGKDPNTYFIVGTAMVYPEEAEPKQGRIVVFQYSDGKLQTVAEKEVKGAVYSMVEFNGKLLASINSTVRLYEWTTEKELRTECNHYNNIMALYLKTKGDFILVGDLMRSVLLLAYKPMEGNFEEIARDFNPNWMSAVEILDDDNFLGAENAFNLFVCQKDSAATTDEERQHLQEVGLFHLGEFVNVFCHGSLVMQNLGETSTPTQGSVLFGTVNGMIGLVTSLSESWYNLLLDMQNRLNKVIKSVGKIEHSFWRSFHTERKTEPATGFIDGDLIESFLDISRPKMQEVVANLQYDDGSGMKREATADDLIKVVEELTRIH
Outline: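 Background fluorescence is reduced by reading 70 μs after excitation, and complex formation is followed as the 520:490 nm fluorescence ratio.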

- DC50 [1]: > 10000 nM
- IC50 (CDK12–cyclin K; Lanthascreen, average, Extended Data Fig. 8, read-out: CDK12 IC50): > 10000 nM
- IC50 (CDK12–cyclin K; Supplementary Table 2, read-out: Lanthascreen IC50 [nM] CDK12): > 10000 nM
- Lanthascreen raw signal, sheet CDK12 (CDK12–cyclin K; compound 1.02544 nM): 0.009993 and 0.009189
- Lanthascreen raw signal, sheet CDK12 (CDK12–cyclin K; compound 3.15521 nM): 0.007678 and 0.01017
- Lanthascreen raw signal, sheet CDK12 (CDK12–cyclin K; compound 9.46563 nM): 0.008332 and 0.008957
- Lanthascreen raw signal, sheet CDK12 (CDK12–cyclin K; compound 31.5521 nM): 0.009201 and 0.006925
- Lanthascreen raw signal, sheet CDK12 (CDK12–cyclin K; compound 99.3891 nM): 0.01004 and 0.007454
- Lanthascreen raw signal, sheet CDK12 (CDK12–cyclin K; compound 315.521 nM): 0.008681 and 0.00881
- Lanthascreen raw signal, sheet CDK12 (CDK12–cyclin K; compound 3155.21 nM): 0.008543 and 0.006433
- Lanthascreen raw signal, sheet CDK12 (CDK12–cyclin K; compound 10002 nM): 0.006174 and 0.006044
- Lanthascreen signal, sheet CDK2 (CDK2–cyclin A; Compound 1.02544 nM): 0.01007 and 0.009144
- Lanthascreen signal, sheet CDK2 (CDK2–cyclin A; Compound 3.15521 nM): 0.0112 and 0.008273
- Lanthascreen signal, sheet CDK2 (CDK2–cyclin A; Compound 9.46563 nM): 0.0109 and 0.01003
- Lanthascreen signal, sheet CDK2 (CDK2–cyclin A; Compound 31.5521 nM): 0.009356 and 0.009077
- Lanthascreen signal, sheet CDK2 (CDK2–cyclin A; Compound 99.3891 nM): 0.01058 and 0.01018
- Lanthascreen signal, sheet CDK2 (CDK2–cyclin A; Compound 315.521 nM): 0.009946 and 0.008466
- Lanthascreen signal, sheet CDK2 (CDK2–cyclin A; Compound 3155.21 nM): 0.009117 and 0.008683
- Lanthascreen signal, sheet CDK2 (CDK2–cyclin A; Compound 10002 nM): 0.008076 and 0.006678
- IC50 (CDK2–cyclin A; Lanthascreen, average, Extended Data Fig. 8, read-out: CDK2 IC50): > 10000 nM
- IC50 (CDK2–cyclin A; Supplementary Table 2, read-out: Lanthascreen IC50 [nM] CDK2): > 10000 nM
- IC50 (CDK9–cyclin T; Supplementary Table 2, read-out: Lanthascreen IC50 [nM] CDK9): 873 nM
- Lanthascreen TR-FRET signal (raw ratio), sheet CDK9 (CDK9–cyclin T; compound 1.02544 nM): 0.01205 and 0.01344
- Lanthascreen TR-FRET signal (raw ratio), sheet CDK9 (CDK9–cyclin T; compound 3.15521 nM): 0.01275 and 0.01665
- Lanthascreen TR-FRET signal (raw ratio), sheet CDK9 (CDK9–cyclin T; compound 9.46563 nM): 0.01222 and 0.01758
- Lanthascreen TR-FRET signal (raw ratio), sheet CDK9 (CDK9–cyclin T; compound 31.5521 nM): 0.01391 and 0.02091
- Lanthascreen TR-FRET signal (raw ratio), sheet CDK9 (CDK9–cyclin T; compound 99.3891 nM): 0.01184 and 0.01953
- Lanthascreen TR-FRET signal (raw ratio), sheet CDK9 (CDK9–cyclin T; compound 315.521 nM): 0.01137 and 0.01786
- Lanthascreen TR-FRET signal (raw ratio), sheet CDK9 (CDK9–cyclin T; compound 3155.21 nM): 0.003916 and 0.005427
- Lanthascreen TR-FRET signal (raw ratio), sheet CDK9 (CDK9–cyclin T; compound 10002 nM): 0.004637 and 0.003497
- EC50 (CDK12–cyclin K and DDB1; Supplementary Table 2, read-out: TR-FRET EC50 TR-FRET): 303 nM
- TR-FRET signal (CDK12–cyclin K and DDB1; compound concentration 0.468 nM): 0.3146 and 0.2937
- TR-FRET signal (CDK12–cyclin K and DDB1; compound concentration 2.16 nM): 0.327 and 0.3142
- TR-FRET signal (CDK12–cyclin K and DDB1; compound concentration 3.6 nM): 0.3516 and 0.3492
- TR-FRET signal (CDK12–cyclin K and DDB1; compound concentration 4.68 nM): 0.1778 and 0.177
- TR-FRET signal (CDK12–cyclin K and DDB1; compound concentration 7.92001 nM): 0.4103 and 0.4025
- TR-FRET signal (CDK12–cyclin K and DDB1; compound concentration 15.84 nM): 0.4987 and 0.4962
- TR-FRET signal (CDK12–cyclin K and DDB1; compound concentration 21.6 nM): 0.3031 and 0.3042
- TR-FRET signal (CDK12–cyclin K and DDB1; compound concentration 30.96 nM): 0.6587 and 0.6967
- TR-FRET signal (CDK12–cyclin K and DDB1; compound concentration 36 nM): 0.5003 and 0.5187
- TR-FRET signal (CDK12–cyclin K and DDB1; compound concentration 62.6401 nM): 0.9444 and 1.024
- TR-FRET signal (CDK12–cyclin K and DDB1; compound concentration 79.2001 nM): 0.8582 and 0.8909
- TR-FRET signal (CDK12–cyclin K and DDB1; compound concentration 125.28 nM): 1.324 and 1.444
- TR-FRET signal (CDK12–cyclin K and DDB1; compound concentration 158.4 nM): 1.305 and 1.368
- TR-FRET signal (CDK12–cyclin K and DDB1; compound concentration 244.8 nM): 1.9166 and 1.983
- TR-FRET signal (CDK12–cyclin K and DDB1; compound concentration 309.6 nM): 1.882 and 1.916
- TR-FRET signal (CDK12–cyclin K and DDB1; compound concentration 626.401 nM): 2.43 and 2.4997
- TR-FRET signal (CDK12–cyclin K and DDB1; compound concentration 993.601 nM): 2.9527 and 2.952
- TR-FRET signal (CDK12–cyclin K and DDB1; compound concentration 1252.8 nM): 2.93 and 3.011
- TR-FRET signal (CDK12–cyclin K and DDB1; compound concentration 2001.6 nM): 3.382 and 3.238
- TR-FRET signal (CDK12–cyclin K and DDB1; compound concentration 2448 nM): 3.265 and 3.3741
- TR-FRET signal (CDK12–cyclin K and DDB1; compound concentration 9936.01 nM): 3.59 and 3.595
- TR-FRET signal (CDK12–cyclin K and DDB1; compound concentration 20016 nM): 3.713 and 3.698
- EC50 (CDK12–cyclin K and DDB1; in vitro complex formation, 50 nM CDK12–cyclin K, 100 nM DDB1, text and figures, read-out: TR-FRET EC50): 303 ± 16 nM
- EC50 (CDK12–cyclin K and DDB1; sheet MOESM7, read-out: log TR-FRET EC50 (converted)): 303 nM
SMILES: O=C(CCn1cnc2ccccc2c1=O)Nc1ccc(Br)cn1 [Z7]
- EC50 (HEK293T cells; Homo sapiens, HEK-293T, HEK293T viability, 72 h, compound alone, read-out: Cellular assays EC50): > 10000 nM
- Toxicity rescue (HEK293T cells; MLN4924-mediated cytotoxicity rescue, 10 µM used where n.d.): 0%
